Active and inactive are the calls of the source. The rule behind the calls is not given here.
Legend:
[1] = test system: RS4-11; assay: Antiproliferative activity against human RS4:11 cells assessed as reduction in cell viability at 100 nM after 48 hrs by MTT assay; type: functional, cell-based
[2] = test system: RS4-11; assay: Induction of apoptosis in human RS4:11 cells assessed as viable cells at 10 nM after 24 hrs by Annexin-V-FITC/propidium iodide staining based flow cytometry relative to control; type: functional; conditions: RS4-11, 24 h, read-out: Activity
[3] = target: T1, Protein cereblon/E3 ubiquitin-protein ligase Mdm2 (Homo sapiens, UniProt Q00987+Q96SW2); assay: Protac activity at CRBN/MDM2 in human RS4:11 cells assessed as effect on TP53 expression at 1 uM measured after 6 hrs by qRT-PCR method; type: cell-based
Target sequence in this assay (Q00987 whole entry, looked up): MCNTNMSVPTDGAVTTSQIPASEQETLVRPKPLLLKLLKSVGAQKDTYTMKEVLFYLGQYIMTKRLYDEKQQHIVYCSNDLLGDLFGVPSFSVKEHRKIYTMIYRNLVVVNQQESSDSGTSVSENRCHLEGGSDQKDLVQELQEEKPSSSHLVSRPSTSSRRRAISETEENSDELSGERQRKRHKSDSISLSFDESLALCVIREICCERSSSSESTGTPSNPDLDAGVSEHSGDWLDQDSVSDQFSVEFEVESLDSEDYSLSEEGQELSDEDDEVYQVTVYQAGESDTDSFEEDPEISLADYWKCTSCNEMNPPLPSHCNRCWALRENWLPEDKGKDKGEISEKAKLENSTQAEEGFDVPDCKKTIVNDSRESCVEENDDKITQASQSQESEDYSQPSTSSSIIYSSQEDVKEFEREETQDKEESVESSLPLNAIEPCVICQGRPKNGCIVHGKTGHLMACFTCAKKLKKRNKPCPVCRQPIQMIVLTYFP
Target sequence in this assay (Q96SW2 whole entry, looked up): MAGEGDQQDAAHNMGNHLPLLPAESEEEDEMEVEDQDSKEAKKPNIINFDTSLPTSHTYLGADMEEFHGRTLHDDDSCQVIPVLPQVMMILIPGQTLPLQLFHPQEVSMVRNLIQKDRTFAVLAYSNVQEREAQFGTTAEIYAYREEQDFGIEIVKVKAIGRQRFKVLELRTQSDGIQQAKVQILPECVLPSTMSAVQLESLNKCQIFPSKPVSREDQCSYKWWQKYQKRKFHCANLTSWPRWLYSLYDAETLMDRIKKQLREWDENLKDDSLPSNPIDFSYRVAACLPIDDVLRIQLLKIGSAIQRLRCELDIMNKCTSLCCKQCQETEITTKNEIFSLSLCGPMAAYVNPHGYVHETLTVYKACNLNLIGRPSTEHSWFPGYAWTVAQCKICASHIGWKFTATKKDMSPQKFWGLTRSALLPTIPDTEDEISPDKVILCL

[4] = target: T1, Protein cereblon/E3 ubiquitin-protein ligase Mdm2; assay: Protac activity at CRBN/MDM2 in human RS4:11 cells assessed as upregulation of P21 expression at 1 uM measured after 6 hrs by qRT-PCR method; type: cell-based
Target sequence in this assay (Q00987 whole entry, looked up): as the sequence (Q00987 whole entry, looked up) above
Target sequence in this assay (Q96SW2 whole entry, looked up): as the sequence (Q96SW2 whole entry, looked up) above

[5] = test system: RS4-11; assay: Induction of apoptosis in human RS4:11 cells assessed as necrotic cells at 1000 nM after 24 hrs by Annexin-V-FITC/propidium iodide staining based flow cytometry relative to control; type: functional
[6] = test system: RS4-11; assay: Induction of apoptosis in human RS4:11 cells assessed as early apoptotic cells at 100 nM after 24 hrs by Annexin-V-FITC/propidium iodide staining based flow cytometry relative to control; type: functional
[7] = test system: RS4-11; assay: Induction of apoptosis in human RS4:11 cells assessed as early apoptotic cells at 1000 nM after 24 hrs by Annexin-V-FITC/propidium iodide staining based flow cytometry relative to control; type: functional
[8] = target: T1, Protein cereblon/E3 ubiquitin-protein ligase Mdm2; assay: Protac activity at CRBN/MDM2 in human RS4:11 cells assessed as upregulation of MDM2 expression at 1 uM measured after 6 hrs by qRT-PCR method; type: cell-based
Target sequence in this assay (Q00987 whole entry, looked up): as the sequence (Q00987 whole entry, looked up) above
Target sequence in this assay (Q96SW2 whole entry, looked up): as the sequence (Q96SW2 whole entry, looked up) above

[9] = test system: RS4-11; assay: Induction of apoptosis in human RS4:11 cells assessed as necrotic cells at 10 nM after 24 hrs by Annexin-V-FITC/propidium iodide staining based flow cytometry relative to control; type: functional
[10] = test system: RS4-11; assay: Induction of apoptosis in human RS4:11 cells assessed as early apoptotic cells at 10 nM after 24 hrs by Annexin-V-FITC/propidium iodide staining based flow cytometry relative to control; type: functional
[11] = test system: RS4-11; assay: Induction of apoptosis in human RS4:11 cells assessed as late apoptotic cells at 100 nM after 24 hrs by Annexin-V-FITC/propidium iodide staining based flow cytometry relative to control; type: functional
[12] = test system: RS4-11; assay: Induction of apoptosis in human RS4:11 cells assessed as viable cells at 100 nM after 24 hrs by Annexin-V-FITC/propidium iodide staining based flow cytometry relative to control; type: functional; conditions: RS4-11, 24 h, read-out: Activity
[13] = test system: RS4-11; assay: Induction of apoptosis in human RS4:11 cells assessed as necrotic cells at 100 nM after 24 hrs by Annexin-V-FITC/propidium iodide staining based flow cytometry relative to control; type: functional
[14] = test system: RS4-11; assay: Induction of apoptosis in human RS4:11 cells assessed as late apoptotic cells at 10 nM after 24 hrs by Annexin-V-FITC/propidium iodide staining based flow cytometry relative to control; type: functional
[15] = test system: RS4-11; assay: Induction of apoptosis in human RS4:11 cells assessed as viable cells at 1000 nM after 24 hrs by Annexin-V-FITC/propidium iodide staining based flow cytometry relative to control; type: functional; conditions: RS4-11, 24 h, read-out: Activity
[16] = test system: RS4-11; assay: Induction of apoptosis in human RS4:11 cells assessed as late apoptotic cells at 1000 nM after 24 hrs by Annexin-V-FITC/propidium iodide staining based flow cytometry relative to control; type: functional
[17] = target: T1, Protein cereblon/E3 ubiquitin-protein ligase Mdm2; assay: Protac activity at CRBN/MDM2 in human RS4:11 cells assessed as increase in degradation of MDM2 at 10 to 100 nM measured after 12 hrs by Western blot analysis; type: cell-based
Target sequence in this assay (Q00987 whole entry, looked up): as the sequence (Q00987 whole entry, looked up) above
Target sequence in this assay (Q96SW2 whole entry, looked up): as the sequence (Q96SW2 whole entry, looked up) above

[18] = target: T1, Protein cereblon/E3 ubiquitin-protein ligase Mdm2; assay: Protac activity at CRBN/MDM2 in human RS4:11 cells assessed as MDM2 degradation at 100 nM preincubated with proteasome inhibitior MG132 for 2 hrs followed by compound addition measured after 4 hrs by Western blot analysis; type: cell-based
Target sequence in this assay (Q00987 whole entry, looked up): as the sequence (Q00987 whole entry, looked up) above
Target sequence in this assay (Q96SW2 whole entry, looked up): as the sequence (Q96SW2 whole entry, looked up) above

[19] = target: T1, Protein cereblon/E3 ubiquitin-protein ligase Mdm2; assay: Protac activity at CRBN/MDM2 in human RS4:11 cells assessed as MDM2 degradation by Western blot analysis; type: cell-based
[20] = target: T1, Protein cereblon/E3 ubiquitin-protein ligase Mdm2; assay: Protac activity at CRBN/MDM2 in human RS4:11 cells assessed as degradation of MDM2 at 100 nM to 1 uM by Westernblot analysis; type: cell-based
Target sequence in this assay (Q00987 whole entry, looked up): as the sequence (Q00987 whole entry, looked up) above
Target sequence in this assay (Q96SW2 whole entry, looked up): as the sequence (Q96SW2 whole entry, looked up) above

[21] = target: T1, Protein cereblon/E3 ubiquitin-protein ligase Mdm2; assay: Protac activity at CRBN/MDM2 in human RS4:11 cells assessed as increase in accumulation of p53 at 100 nM by Western blot analysis; type: cell-based
[22] = target: T1, Protein cereblon/E3 ubiquitin-protein ligase Mdm2; assay: Protac activity at CRBN/MDM2 in human RS4:11 cells assessed as upregulation of P21 expression at 100 nM measured after 6 hrs by qRT-PCR method; type: cell-based
[23] = target: T1, Protein cereblon/E3 ubiquitin-protein ligase Mdm2; assay: Protac activity at CRBN/MDM2 in human RS4:11 cells assessed as maximal MDM2 degradation level at 100 nM after 24 hrs by Western blot analysis relative to control; type: cell-based
[24] = target: T1, Protein cereblon/E3 ubiquitin-protein ligase Mdm2; assay: Protac activity at CRBN/MDM2 in human RS4:11 cells assessed as effect on TP53 expression at 30 to 100 nM measured after 6 hrs by qRT-PCR method; type: cell-based
[25] = target: T1, Protein cereblon/E3 ubiquitin-protein ligase Mdm2; assay: Protac activity at CRBN/MDM2 in human RS4:11 cells assessed as increase in degradation of MDM2 by Western blot analysis; type: cell-based; conditions: TDE = time-dependent effect
[26] = target: T1, Protein cereblon/E3 ubiquitin-protein ligase Mdm2; assay: Protac activity at CRBN/MDM2 in human RS4:11 cells assessed as upregulation of P53 expression at 100 nM to 1 uM by Westernblot analysis; type: cell-based
[27] = test system: RS4-11; assay: Induction of apoptosis in human RS4:11 cells assessed as PARP cleavage at 100 nM to 1 uM by Westernblot analysis; type: functional, cell-based
[28] = target: T1, Protein cereblon/E3 ubiquitin-protein ligase Mdm2; assay: Protac activity at CRBN/MDM2 in human RS4:11 cells assessed as upregulation of MDM2 expression at 100 nM measured after 6 hrs by qRT-PCR method; type: cell-based
[29] = test system: RS4-11; assay: Induction of apoptosis in human RS4:11 cells by Annexin-V-FITC/propidium iodide staining based flow cytometry relative to control; type: functional, cell-based
[30] = target: T1, Protein cereblon/E3 ubiquitin-protein ligase Mdm2; assay: Protac activity at CRBN/MDM2 in human RS4:11 cells assessed as PARP cleavage after 6 hrs by Western blot analysis; type: cell-based
[31] = test system: RS4-11; assay: Induction of apoptosis in human RS4:11 cells assessed as caspase3 expression at 100 nM to 1 uM by Westernblot analysis; type: functional, cell-based
[32] = target: T1, Protein cereblon/E3 ubiquitin-protein ligase Mdm2; assay: (§1) Protac activity at CRBN/MDM2 in human RS4:11 cells assessed as reduction in MDM2 degradation at 100 nM preincubated with lenalidomide for 2 hrs followed by compound addition measured after 4 hrs by Western blot analysis; type: cell-based
[33] = target: T1, Protein cereblon/E3 ubiquitin-protein ligase Mdm2; assay: Protac activity at CRBN/MDM2 in human RS4:11 cells assessed MDM2 degradation at 10 to 100 nM measured after 1 hr by immunoblot analysis; type: cell-based
[34] = test system: RS4-11; assay: Antiproliferative activity against human RS4:11 cells assessed as reduction in cell viability after 48 hrs by MTT assay; type: functional, cell-based; conditions: RS4-11, 48 h
[35] = target: T1, Protein cereblon/E3 ubiquitin-protein ligase Mdm2; assay: Protac activity at CRBN/MDM2 in human RS4:11 cells assessed as increase in P21 expression at 100 nM to 1 uM by Westernblot analysis; type: cell-based
[36] = target: T1, Protein cereblon/E3 ubiquitin-protein ligase Mdm2; assay: as §1, with “((4S,5R)-2-(4-(tert-butyl)-2-ethoxyphenyl)-4,5-bis(4-chlorophenyl)-4,5-dihydro-1H-imidazol-1-yl)(piperazin-1-yl)methanone” for “lenalidomide”; type: cell-based
[37] = target: T1, Protein cereblon/E3 ubiquitin-protein ligase Mdm2; assay: Protac activity at CRBN/MDM2 in human RS4:11 cells assessed as increase in degradation of MDM2 at 100 nM by Western blot analysis; type: cell-based

For `CCOc1cc(C(C)(C)C)ccc1C1=N[C@@H](c2ccc(Cl)cc2)[C@@H](c2ccc(Cl)cc2)N1C(=O)N1CCN(CCC#Cc2cccc3c2CN(C2CCC(=O)NC2=O)C3=O)CC1` (some centres undefined), the Activity [1] was “Active”.

For `CCOc1cc(C(C)(C)C)ccc1C1=N[C@@H](c2ccc(Cl)cc2)[C@@H](c2ccc(Cl)cc2)N1C(=O)N1CCN(CCCC#Cc2cccc3c2CN(C2CCC(=O)NC2=O)C3=O)CC1` (some centres undefined), the Activity [1] was “Active”.

In the case of `CCOc1cc(C(C)(C)C)ccc1C1=N[C@@H](c2ccc(Cl)cc2)[C@@H](c2ccc(Cl)cc2)N1C(=O)N1CCNCC1`, the viability at 0.01 µM [2] is reported as 84.2%, the Activity [3] is reported as “inactive” and the Activity [4] is reported as “Active”. It also gave an Activity [5] of 0.46%, an Activity [6] of 10.1% and an Activity [7] of 13.7%. The Activity [8] was “Active”, the Activity [9] was 0.00582% and the Activity [10] was 10.5%. The Activity [11] was 5.45%, the viability at 0.1 µM [12] was 84.4% and the Activity [13] was 0%. The Activity [14] was 5.37%, the viability at 1 µM [15] was 69.5% and the Activity [16] was 16.3%.

In the case of `CCOc1cc(C(C)(C)C)ccc1C1=N[C@H](c2ccc(Cl)cc2)[C@H](c2ccc(Cl)cc2)N1C(=O)N1CCN(C(=O)CNC(=O)CCCC#Cc2cccc3c2CN(C2CCC(=O)NC2=O)C3=O)CC1` (some centres undefined), the Activity [17] is reported as “Active”.

In the case of `CCOc1cc(C(C)(C)C)ccc1C1=N[C@@H](c2ccc(Cl)cc2)[C@@H](c2ccc(Cl)cc2)N1C(=O)N1CCN(CC#Cc2cccc3c2CN(C2CCC(=O)NC2=O)C3=O)CC1` (some centres undefined), the viability at 0.01 µM [2] is reported as 79.2%, the Activity [18] is reported as “Active” and the Activity [19] is reported as “Dose-dependent effect”. It also gave a DC50 [19] of 23 nM, an Activity [5] of 0.27% and an Activity [6] of 22.3%. For the same compound, the Activity [1] was “Active”, the Activity [20] was “Active” and the Activity [21] was “Active”. The Activity [22] was “Active”, the Activity [7] was 27.1% and the Activity [17] was “Active”. For the same compound, the Emax [23] was 90%, the Activity [24] was “inactive” and the Activity [25] was “Tde”. For the same compound, the Activity [26] was “Active”, the Activity [9] was 0.2% and the Activity [27] was “Active”. For the same compound, the Activity [10] was 10.5%, the Activity [28] was “Active” and the Activity [11] was 51.6%. The viability at 0.1 µM [12] was 26%, the Activity [29] was “Dose-dependent effect” and the Activity [13] was 0.1%. For the same compound, the Activity [30] was “Active”, the Activity [31] was “Active” and the Activity [32] was “Active”. The Activity [33] was “Active”, the IC50 [34] was 3.2 nM and the Activity [35] was “Active”. For the same compound, the Activity [14] was 10.1%, the viability at 1 µM [15] was 28.8% and the Activity [36] was “Active”. The Activity [37] was “Active” and the Activity [16] was 43.9%.

In the case of `CCOc1cc(C(C)(C)C)ccc1C1=NC(c2ccc(Cl)cc2)C(c2ccc(Cl)cc2)N1C(=O)N1CCN(CC#Cc2cccc3c2CN(C2CCC(=O)NC2=O)C3=O)CC1` (racemic), the Activity [1] is reported as “Active”, the Activity [21] is reported as “Active” and the Activity [17] is reported as “Active”. For the same compound, the IC50 [34] was 7.2 nM and the Activity [37] was “Active”.

For `CCOc1cc(C(C)(C)C)ccc1C1=N[C@@H](c2ccc(Cl)cc2)[C@@H](c2ccc(Cl)cc2)N1C(=O)N1CCN(C(=O)CCC#Cc2cccc3c2CN(C2CCC(=O)NC2=O)C3=O)CC1` (some centres undefined), the Activity [17] was “Active”.

From ChEMBL document CHEMBL4350988, “Development of selective small molecule MDM2 degraders based on nutlin” (Eur J Med Chem, 2019)
